From patent publication US6387956B1, “Methods of treating obsessive-compulsive spectrum disorders” (University of Cincinnati, priority 1999, dated 2002)
Counter-ions that a name gives are not always drawn.

Assays:
[1] = system: SRI-treatment refractory OCD; experiment: Six week tramadol hydrochloride treatment of SRI-refractory OCD patients, assessed with Y-BOCS, HAM-D and CGI; type: in vivo
Description: (§1) Exclusion criteria for the study included a life-time DSM-IV diagnosis of mania, psychotic disorder, alcohol or substance abuse or dependence, prior history of hypersensitivity to tramadol or any other opioid, a history of seizures, including childhood febrile seizures, and any clinically relevant abnormal laboratory results or clinically unstable medical conditions. […] The patients were not concurrently receiving behavioral therapy.
(§2) Patients were evaluated using the Yale-Brown Obsessive Compulsive Scale (Y-BOCS), the Hamilton Rating Scale for Depression (HAM-D) and the Clinical Global Impression Scale (CGI). Subsequent to screening, the individuals received a six week treatment with tramadol hydrochloride. The tramadol hydrochloride was initially administered at 50 mg four times a day for the first week. If there was less than a 20% drop in baseline Y-BOCS scores by the end of week one, the tramadol hydrochloride dose was advanced slowly over 1 to 2 weeks to a maximum of 400 mg per day in 3 to 5 divided doses. Weekly measurements with the Y-BOCS, HAM-D and CGI were used to assess responses. Y-BOCS and HAM-D values at the start and end of the trial were compared using the Wilcoxon signed-ranks test.
The mean ± standard deviation dose of tramadol hydrochloride for the six patients completing at least two weeks was 254±119 mg/day (divided into from 3 to 5 doses). The mean ± standard deviation of baseline and endpoint Y-BOCS, HAM-D and severity of illness CGI and global improvement CGI are set forth below in Table 1. […] The scores for the patient who dropped out in week 6 were carried forward from week 5.

[2] = Example 3: weight of a OCD patient during 11 months of tramadol hydrochloride; type: in vivo
Description: A OCD patient was treated with tramadol hydrochloride for a total of 11 months, during the last month of the study the patient was titrated off the tramadol hydrochloride. The only additional prescribed medication was alendronic acid ((4-amino-1-hydroxybutylidene)bisphosphonic acid) started at week 6 for osteoporosis unrelated to tramadol use. (The patient has a family history of osteoporosis and previous steroid use.) The patient's weight and tramadol hydrochloride doses are set forth in Table 4 below.

[3] = Weight and appetite during the six week tramadol hydrochloride study; type: in vivo, patients
Description: as §1, §2
Weekly mean ± standard deviation of weight and tramadol doses for the patients are set forth below in Table 2, while weights and tramadol hydrochloride doses for individual patients are set forth in Table 3. For data analysis purposes, when an individual's weight was not available, the weight from the previous week was carried forward.

OCD = experiment: Example 2: case of a person with OCD, Y-BOCS; type: in vivo, patient
Description: The tramadol hydrochloride therapy was then supplemented with 20 mg per day of fluoxetine, and three weeks later the fluoxetine was increased to 40 mg daily.

Tourette's syndrome = experiment: Example 4: case of a patient with major depressant disorder and Tourette's syndrome, motor tics; type: in vivo; settings: 50 mg twice a day added to bupropion
Description: A patient with a history of recurrent major depressant disorder was treated with extended release bupropion (1-(3-chlorophenyl)-2-[(1,1-dimethylethyl)amino]-1-[…]), at a total dose of 300 mg per day (200 mg in the morning and 100 mg in the evening). […] The patient also reported a history of purging. […] The patient was diagnosed as having major depressant disorder and Tourette's syndrome.
The bupropion was supplemented with 50 mg twice a day of tramadol. […] The patient estimated that the number of tics was reduced by about two-thirds after starting the tramadol. The patient's bupropion dose was increased to 400 mg per day (200 mg twice a day), while the tramadol dose was maintained at 50 mg twice a day. The patient was informed the tramadol dose could be increased to 50 mg four times a day if the number of tics increased.

[4] = during tramadol hydrochloride treatment

COc1cccc(C2(O)CCCCC2CN(C)C)c1 (mixture of isomers) [tramadol hydrochloride, (±) cis-2-[(dimethylamino)methyl]-1(3-methoxyphenyl)cyclohexanolhydrochloride]
withdrawal Y-BOCS score, average, after withdrawal ([1]; 3 patients stopping tramadol hydrochloride without adding another agent, followed for two weeks): 19.7
withdrawal Y-BOCS score, average, at stopping ([1]; 3 patients stopping tramadol hydrochloride without adding another agent, start of withdrawal): 14.3
adverse event leading to discontinuation ([1]; another patient, during week 6): panic attack
Y-BOCS scores during treatment [1, 4]: decreased
change in HAM-D scores [1, 4]: no significant change
Global Improvement CGI, mean ± SD, ENDPOINT ([1]; endpoint of six week treatment, six patients, baseline 5.2 ± 0.8, 2=much improved, 3=minimally improved, 4=no change): 2.3 ± 1.0
Severity of Illness CGI, mean ± SD, ENDPOINT ([1]; endpoint of six week treatment, six patients, baseline 5.3 ± 1.5, 4=moderately ill, 5=markedly ill, 6=severely ill): 4.5 ± 1.2
HAM-D, mean ± SD, ENDPOINT ([1]; endpoint of six week treatment, six patients, baseline 27.7 ± 15.9): 28.8 ± 9.8
urges or pressures to perform the compulsions, patient reported ([1]; obsessions persisted in a muted form): diminished
adverse event leading to discontinuation ([1]; one patient, during week 1): nausea and exacerbation of trichotillomania
decrease in Y-BOCS scores within the first week ([1]; three of the seven patients, rapid onset of response): greater than 6 point
compulsive urges after the first dose ([1]; two individuals, first 50 mg dose): alleviation
Weight ([2]; Month 3, 350 mg/day for 2 weeks, followed by 400 mg/day): 127.0 lbs
Weight ([2]; Month 4, 400 mg/day): 124.5 lbs
Weight ([2]; Month 5, 400 mg/day): 124.75 lbs
Weight ([2]; Month 6, 400 mg/day, alendronic acid started): 124.5 lbs
Weight ([2]; Month 7, 400 mg/day): 127.0 lbs
Weight ([2]; Month 8, 400 mg/day): 125.0 lbs
Weight ([2]; Month 9, 300 mg/day): 128.0 lbs
Weight ([2]; Month 10, 150 mg/day): 127.5 lbs
Weight ([2]; Month 11, 100 mg/day for 2 weeks, 50 mg/day for 1 week, then discontinued): 131.5 lbs
Weight ([2]; Week 2, 300 mg/day, baseline 129.5): 128.25 lbs
Weight ([2]; Week 3, 400 mg/day): 127.0 lbs
Weight ([2]; Week 4, 400 mg/day): 127.25 lbs
Weight ([2]; Week 6, 300 mg/day): 126.0 lbs
Weight ([2]; Week 7, 300 mg/day): 126.3 lbs
Weight ([2]; Week 8, 300 mg/day): 126.0 lbs
weight after treatment was discontinued ([2]; after the tramadol hydrochloride treatment was discontinued): regained
effect on weight during treatment ([2]; during the tramadol hydrochloride treatment): lost weight
Weight, mean ± SD ([3]; Week 1, seven patients, baseline 173.36 ± 29.58): 172.46 ± 29.9 lbs
Weight, mean ± SD ([3]; Week 2, seven patients): 170.39 ± 29.1 lbs
Weight, mean ± SD ([3]; Week 3, seven patients): 170.5 ± 29.64 lbs
Weight, mean ± SD ([3]; Week 4, seven patients): 169.46 ± 28.62 lbs
Weight, mean ± SD ([3]; Week 5, seven patients): 169.1 ± 28 lbs
Weight, mean ± SD ([3]; Week 6, seven patients): 167.5 ± 26.54 lbs
weight lost on average ([3]; seven patients, six week treatment): 5.86 pounds
appetite, patient reported ([3]; six week treatment): decreased appetite
time to reported decrease in obsessions and compulsions (OCD; 50 mg twice a day): ≤ 24 h
Y-BOCS score (OCD; after one week of treatment, score prior to treatment 26): 19

COc1cccc([C@]2(O)CCCC[C@H]2CN(C)C)c1 (racemic) [tramadol, (±)cis-2-[(dimethylamino)methyl]-1(3-methoxyphenyl) cyclohexanol]
side effects (Tourette's syndrome): without any side effects
